# Assay results taken from US5187171A (G. D. Searle & Co., priority 1989, dated 1993).
# Experiments:
# [1] = tested on: mentally disturbed patients; conditions: 500 mg per day, cited from earlier work
# [2] = target: T1, NMDA receptor-associated glycine recognition site ("Glycine B receptor") (Rattus norvegicus, UniProt P35439); test: TCP modulation assay (stimulation of [3H]TCP binding); type: biochemical; conditions: basal [3H]TCP binding
# T1 construct: synaptic plasma membranes (SPM) prepared from rat forebrain; from tissue; host or cells: rat forebrain (male Sprague-Dawley, animals from Sasco) synaptic plasma membranes, Triton X-100 washed
# Experimental: [^3 H]TCP binding was performed using Triton X-100 washed synaptic plasma membranes (SPM) prepared from rat forebrain (30-45 day old, male Sprague-Dawley; Sasco, St. Charles, Mo.) as described previously [J. W. Thomas, W. F. Hood, J. B. Monahan, P. C. Contreras and T. L. O'Donohue, Brain Res., 442, 396-398 (1988)]. […] The samples were then filtered through glass fiber filters (Schleicher and Schuell #32) which were pretreated with 0.05% (v/v) polyethylenimine. The filters were washed and the radioactivity quantitated by liquid scintillation spectrometry. […] The EC50 values for the stimulation of [^3 H]TCP binding were determined using a four parameter logistic regression analysis.
compound,measurement,setting,value
"N[C@@H]1CONC1=O [D-cycloserine, 4-amino-3-isoxazolidone]",Clinical response,[1]; mentally disturbed patients,"improvements in depression, insomnia, anexoria or tension were found for some patients"
same,Clinical response of patients suffering from severe neurosis or psychosis,[1],responded poorly
same,Maximal stimulation of [3H]TCP binding compared with glycine and D-serine,[2],significantly less than that produced by both glycine and D-serine
